# Assay results as given in US9701676B2, “Pro-neurogenic compounds” (Board of Regents of The University of Texas System, priority 2012, dated 2017).
# System: proliferating neural precursor cells in the hippocampus (subgranular layer of the dentate gyrus)
# Assay: standard in vivo hippocampal neurogenesis assay (BrdU labelling, week-long intracranial mini-pump infusion)
# Design: species or system mouse (C57/B6)
# Conditions: 10 μM concentration, seven days of infusion at 0.5 μL/hour, daily IP BrdU; four 12 week old adult male C57/B6 mice; vehicle 14.5
# Procedure: Compounds were administered at a concentration of 10 μM for each molecule. After seven days of infusion at a constant rate of 0.5 μL/hour, a total of 84 μL of volume will have left the pump (0.00084 μMoles) and entered the cerebrospinal fluid. The average volume of a brain from a 12 week old male, C57/B6 mouse in the study is 500 mm^3. […] Under these conditions, at the end of one week of infusion each compound would be present at 1.7 μMolar concentration. Since the actual amount of chemical compound in the brain is likely to be only a fraction of this predicted level, it is reasonable to estimate that compounds were administered at mid to low-nanomolar concentrations.
# During compound infusion, animals were intraperitoneally (IP) injected daily with the thymidine analog, bromodeoxyuridine (BrdU), as a means of scoring the birth and survival of proliferating neural precursor cells in the hippocampus. Because both social interaction and voluntary exercise are known to stimulate hippocampal neurogenesis, mice were housed individually without access to running wheels throughout the screening period. Following the week-long period of compound administration, animals were perfused and sacrificed. Dissected brain tissue was fixed, embedded, sectioned, stained with antibodies to BrdU, and evaluated by light microcopy as a means of quantifying neurogenesis and survival of newborn neural precursor cells localized to the subgranular layer of the dentate gyms on the brain hemisphere contralateral to the side of mini-pump cannulation. Every fifth section throughout the entire rostral-caudal extent of the hippocampus was analyzed, and the total number of BrdU+ cells was normalized against the measured volume of the dentate gyms.
# Intracranial infusions of either fibroblast growth factor 2 (FGF-2) or artificial cerebral spinal fluid (aCSF) vehicle via the same, week-long protocol were employed as positive and negative controls.
# Compounds were evaluated for pro-neurogenic efficacy/neuroprotection in a standard in vivo hippocampal neurogenesis assay at 10 μM concentration in four 12 week old adult male C57/B16 mice.
row,SMILES,(×10^−06) BrdU+ cells/mm^3 dentate gyrus
1,"c1ccc2c(c1)CCc1ccccc1N2 [P7C3-S212, iminodibenzyl, reference compound]",20.5 (×10^−06) BrdU+ cells/mm^3
2,"N#Cc1ccc2[nH]c3ccc(Br)cc3c2c1 [P7C3-S216, 6-bromo-9H-carbazole-3-carbonitrile]",25.9 (×10^−06) BrdU+ cells/mm^3
3,"N#Cc1[nH]c2ccc(Br)cc2c1N [P7C3-S222, 3-amino-5-bromo-1H-indole-2-carbonitrile]",30.1 (×10^−06) BrdU+ cells/mm^3
4,"N#Cc1ccc2c(c1)c1cc(Br)ccc1n2CC(=O)O [P7C3-S224, 2-(3-bromo-6-cyano-9H-carbazol-9-yl)acetic acid]",20.2 (×10^−06) BrdU+ cells/mm^3
5,"O=C(O)c1ccc2[nH]c3ccc(Br)cc3c2c1 [P7C3-S225, 6-bromo-9H-carbazole-3-carboxylic acid]",30.4 (×10^−06) BrdU+ cells/mm^3
6,"O=C(O)Cn1c2ccc(Br)cc2c2cc(C(=O)O)ncc21 [P7C3-S227, 6-bromo-9-(carboxymethyl)-9H-pyrido[3,4-b]indole-3-carboxylic acid]",25.8 (×10^−06) BrdU+ cells/mm^3
7,"Cc1ccc2[nH]c3ccc(Br)cc3c2c1 [P7C3-S228, 3-bromo-6-methyl-9H-carbazole]",40.3 (×10^−06) BrdU+ cells/mm^3
8,"O=C(Cn1c2ccc(Br)cc2c2cc(Br)ccc21)NS(=O)(=O)c1ccccc1 [P7C3-S230, 2-(3,6-dibromo-9H-carbazol-9-yl)-N-(phenylsulfonyl)acetamide]",30.5 (×10^−06) BrdU+ cells/mm^3
9,"O=C(Cn1c2ccc(Br)cc2c2cc(Br)ccc21)NO [P7C3-S231, 2-(3,6-dibromo-9H-carbazol-9-yl)-N-hydroxyacetamide]",26.1 (×10^−06) BrdU+ cells/mm^3
10,"CS(=O)(=O)NC(=O)Cn1c2ccc(Br)cc2c2cc(Br)ccc21 [P7C3-S232, 2-(3,6-dibromo-9H-carbazol-9-yl)-N-(methylsulfonyl)acetamide]",16.8 (×10^−06) BrdU+ cells/mm^3
11,"N#CCn1c2ccc(Br)cc2c2cc(Br)ccc21 [P7C3-S235, 2-(3,6-dibromo-9H-carbazol-9-yl)acetonitrile]",23.4 (×10^−06) BrdU+ cells/mm^3
12,"Cc1ccc2[nH]c3ccc(C)cc3c2c1 [P7C3-S237, 3,6-dimethyl-9H-carbazole]",23.5 (×10^−06) BrdU+ cells/mm^3
13,"NC(=O)c1ccc2c(c1)c1cc(Br)ccc1n2CC(=O)O [P7C3-S238, 2-(3-bromo-6-carbamoyl-9H-carbazol-9-yl)acetic acid]",18.8 (×10^−06) BrdU+ cells/mm^3
14,"O=C(O)Cn1c2ccc(Br)cc2c2cc(C(=O)O)ccc21 [P7C3-S239, 6-bromo-9-(carboxymethyl)-9H-carbazole-3-carboxylic acid]",22.8 (×10^−06) BrdU+ cells/mm^3
15,"Cc1ccc2c(c1)c1cc(Br)ccc1n2CC(=O)O [P7C3-S240, 2-(3-bromo-6-methyl-9H-carbazol-9-yl)acetic acid]",28.5 (×10^−06) BrdU+ cells/mm^3
16,"O=C(O)CCc1c[nH]c2ccccc12 [P7C3-S242, 3-indolepropionic acid, reference compound]",21.5 (×10^−06) BrdU+ cells/mm^3
17,"CN(C)c1nc(O)c2[nH]c3ccccc3c2n1 [P7C3-S245, 2-(dimethylamino)-5H-pyrimido[5,4-b]indol-4-ol]",32.4 (×10^−06) BrdU+ cells/mm^3
18,"CCOC(=O)c1ncc2c(n1)c1ccccc1n2S(=O)(=O)c1ccc(C)cc1 [P7C3-S246, ethyl 5-tosyl-5H-pyrimido[5,4-b]indole-2-carboxylate]",29 (×10^−06) BrdU+ cells/mm^3

row,SMILES,(×10^−06) BrdU+ cells/mm^3 dentate gyrus
1,"CCOC(=O)C1=NCc2c(c3ccccc3n2S(=O)(=O)c2ccc(C)cc2)N1 [P7C3-S247, ethyl 5-tosyl-4,5-dihydro-1H-pyrimido[5,4-b]indole-2-carboxylate]",31.1 (×10^−06) BrdU+ cells/mm^3
2,"N[C@@H](Cc1c[nH]c2ccccc12)C(=O)O [P7C3-S248, L-tryptophan, reference compound]",20.1 (×10^−06) BrdU+ cells/mm^3
3,"N[C@@H](Cc1c[nH]c2ccc(O)cc12)C(=O)O [P7C3-S249, L-5-hydroxy-tryptophan, reference compound]",34.8 (×10^−06) BrdU+ cells/mm^3
4,"COc1cccc(N(CC(O)Cn2c3ccc(Br)cc3c3cc(Br)ccc32)S(C)(=O)=O)c1 (centres unmarked) [P7C3-S251, N-(3-(3,6-dibromo-9H-carbazol-9-yl)-2-hydroxypropyl)-N-(3-methoxyphenyl)methanesulfonamide]",17.7 (×10^−06) BrdU+ cells/mm^3
5,"COc1cccc(N(CC(O)Cn2c3ccc(Br)cc3c3cc(Br)ccc32)S(=O)(=O)c2ccccc2)c1 (centres unmarked) [P7C3-S252, N-(3-(3,6-dibromo-9H-carbazol-9-yl)-2-hydroxypropyl)-N-(3-methoxyphenyl)benzenesulfonamide]",33.2 (×10^−06) BrdU+ cells/mm^3
6,"COc1cccc(N(CC(O)Cn2c3ccc(Br)cc3c3cc(Br)ccc32)S(=O)(=O)c2ccccc2C(F)(F)F)c1 (centres unmarked) [P7C3-S253, N-(3-(3,6-dibromo-9H-carbazol-9-yl)-2-hydroxypropyl)-N-(3-methoxyphenyl)-2-(trifluoromethyl)benzenesulfonamide]",28.5 (×10^−06) BrdU+ cells/mm^3
7,"COc1ccc(S(=O)(=O)N(CC(O)Cn2c3ccc(Br)cc3c3cc(Br)ccc32)c2cccc(OC)c2)cc1 (centres unmarked) [P7C3-S254, N-(3-(3,6-dibromo-9H-carbazol-9-yl)-2-hydroxypropyl)-4-methoxy-N-(3-methoxyphenyl)benzenesulfonamide]",25.5 (×10^−06) BrdU+ cells/mm^3
8,"COc1cccc(N(CC(F)Cn2c3ccc(Br)cc3c3cc(Br)ccc32)S(C)(=O)=O)c1 (centres unmarked) [P7C3-S256, N-(3-(3,6-dibromo-9H-carbazol-9-yl)-2-fluoropropyl)-N-(3-methoxyphenyl)methanesulfonamide]",31.5 (×10^−06) BrdU+ cells/mm^3
9,"COc1cccc(N(CC(F)Cn2c3ccc(Br)cc3c3cc(Br)ccc32)S(=O)(=O)c2ccccc2C(F)(F)F)c1 (centres unmarked) [P7C3-S257, N-(3-(3,6-dibromo-9H-carbazol-9-yl)-2-fluoropropyl)-N-(3-methoxyphenyl)-2-(trifluoromethyl)benzenesulfonamide]",29.4 (×10^−06) BrdU+ cells/mm^3
10,"COc1ccc(S(=O)(=O)N(CC(F)Cn2c3ccc(Br)cc3c3cc(Br)ccc32)c2cccc(OC)c2)cc1 (centres unmarked) [P7C3-S258, N-(3-(3,6-dibromo-9H-carbazol-9-yl)-2-fluoropropyl)-4-methoxy-N-(3-methoxyphenyl)benzenesulfonamide]",29.8 (×10^−06) BrdU+ cells/mm^3
11,"CCOC(=O)c1ncc2[nH]c3ccccc3c2n1 [P7C3-S262, ethyl 5H-pyrimido[5,4-b]indole-2-carboxylate]",18 (×10^−06) BrdU+ cells/mm^3
12,"O=S(=O)(NCC(O)Cn1c2ccc(Br)cc2c2cc(Br)ccc21)C(F)(F)F (centres unmarked) [P7C3-S264, N-(3-(3,6-dibromo-9H-carbazol-9-yl)-2-hydroxypropyl)-1,1,1-trifluoromethanesulfonamide]",20.6 (×10^−06) BrdU+ cells/mm^3
13,"CCCN(CCC)C(=O)Cc1c(-c2ccc(Cl)cc2)nc2ccc(Cl)cn12 [P7C3-S265, 6-Chloro-2-(4-chlorophenyl)-N,N-dipropyl-imidazo[1,2-a]pyridine-3-acetamide, reference compound]",29.3 (×10^−06) BrdU+ cells/mm^3
14,"CC(C)CCC[C@@H](C)[C@H]1CC[C@H]2[C@@H]3CCC4=CC(=NO)CC[C@]4(C)[C@H]3CC[C@]12C [P7C3-S266, Cholest-4-en-3-one, oxime, reference compound]",42.3 (×10^−06) BrdU+ cells/mm^3
15,"Cc1c(C)c2c(c(C)c1O)CC[C@@](C)(CCC[C@H](C)CCC[C@H](C)CCCC(C)C)O2 [P7C3-S267, (+)-a-tocopherol, reference compound]",21.4 (×10^−06) BrdU+ cells/mm^3
16,"N#Cc1[nH]c2ccccc2c1N [P7C3-S268, 3-amino-1H-indole-2-carbonitrile]",32.1 (×10^−06) BrdU+ cells/mm^3
17,"O=c1[nH]c(=O)c2[nH]c3ccc(Br)cc3c2[nH]1 [P7C3-S269, 8-bromo-1H-pyrimido[5,4-b]indole-2,4(3H, 5H)-dione]",35.4 (×10^−06) BrdU+ cells/mm^3
